This passage reports TGI results from PubChem BioAssay (NCI).

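Interpolation was linear, between the two tested concentrations surrounding the appropriate level; five concentrations were tested over 48 hours in 96-well plates. TGI: total growth inhibition.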

Some test systems named below: SK-MEL-2 melanoma; UACC-257 melanoma; NCI-H522 lung; A498 renal; PC-3 prostate; A549 NSCLC; OVCAR-4 ovarian; DU-145 prostate; NCI-H460 lung; HCT-15 colon; CCRF-CEM leukemia; OVCAR-3 ovarian; IGROV1 ovarian; MCF7 breast; SK-MEL-28 melanoma; HOP-92 NSCLC; NCI-H226 lung; T-47D breast; MDA-MB-231 breast; DLD-1 colon.
Holding throughout (experiment): DTP human tumour cell line panel, 48 h

The TGI is the concentration giving total growth inhibition. Lower therefore signals more potent growth arrest.

Regarding `O=C1N(C2CCCCC2)C(=O)N1C1CCCCC1`, the TGI with SK-MEL-2 melanoma was 85.5 µM; in the test on UACC-257 melanoma it was 19.4 µM; in the test with NCI-H522 lung it was 3.66 µM; in the test on A498 renal it was 2.37 µM; in the test with PC-3 prostate, greater than 45.7 µM; in the test with A549 NSCLC, greater than 54.5 µM. Further, the total growth inhibition concentration (TGI) in the test on OVCAR-4 ovarian is 31.7 µM; with DU-145 prostate, greater than 58.9 µM; in the test with NCI-H460 lung it was 30.3 µM; in the test with HCT-15 colon, 22.2 µM; in the test on CCRF-CEM leukemia it was 2.07 µM; in the test on OVCAR-3 ovarian it was greater than 100 µM. Moreover, the TGI in the test with IGROV1 ovarian is greater than 100 µM; with MCF7 breast it was 48.6 µM; in the test on SK-MEL-28 melanoma, 20.7 µM; in the test on HOP-92 NSCLC it was 19.5 µM; in the test on NCI-H226 lung it was 11.3 µM; in the test with T-47D breast it was 17.4 µM. In the test on MDA-MB-231 breast, this molecule registered a TGI of 15.6 µM.
Take `O=C1NC(N/N=C/c2ccccc2)=N/C1=C\c1ccco1`: the TGI was greater than 100 µM in the test on SK-MEL-2 melanoma; greater than 100 µM in the test with UACC-257 melanoma; 95.2 µM in the test with NCI-H522 lung; greater than 100 µM with A498 renal; greater than 100 µM in the test with PC-3 prostate; 81.3 µM with A549 NSCLC. The TGI in the test with OVCAR-4 ovarian is greater than 100 µM; in the test on DU-145 prostate it was greater than 100 µM; in the test on NCI-H460 lung, 45.5 µM; in the test on HCT-15 colon, greater than 100 µM; in the test with CCRF-CEM leukemia it was greater than 100 µM; in the test on OVCAR-3 ovarian, greater than 100 µM. For the same molecule, the TGI was 57.4 µM with IGROV1 ovarian; greater than 100 µM with MCF7 breast; greater than 100 µM in the test on SK-MEL-28 melanoma; 37.3 µM with HOP-92 NSCLC; greater than 100 µM in the test with NCI-H226 lung; greater than 100 µM in the test with T-47D breast. The molecule further came in with a TGI in the test on MDA-MB-231 breast greater than 100 µM.
For `CC1OC(OC2C(O[C@H]3CC[C@@H]4C(=CC[C@@H]5[C@@]4(C)C(=O)C[C@]4(C)[C@@H]([C@H](C)CC[C@@H](O)C(C)(C)O)CC[C@@]54C)C3(C)C)OC(CO)C(O)C2O)C(O)C(O)C1O` (stereo partly drawn), the TGI with SK-MEL-2 melanoma, with UACC-257 melanoma, in the test with NCI-H522 lung, in the test on A498 renal, in the test with PC-3 prostate and in the test with A549 NSCLC was greater than 100 µM in each case. The TGI in the test with OVCAR-4 ovarian, in the test on DU-145 prostate, in the test with NCI-H460 lung, in the test with HCT-15 colon, in the test with CCRF-CEM leukemia and in the test on OVCAR-3 ovarian was greater than 100 µM throughout. For the same molecule, the TGI with IGROV1 ovarian, in the test with MCF7 breast, with SK-MEL-28 melanoma, in the test on HOP-92 NSCLC, in the test with NCI-H226 lung and with T-47D breast was greater than 100 µM each time. This molecule showed a TGI in the test with MDA-MB-231 breast greater than 100 µM.
As to `CN(C)c1ccc(C2CC(c3ccc4ccccc4c3O)=NN2)cc1` (stereo not drawn), the TGI with SK-MEL-2 melanoma was greater than 100 µM; in the test with UACC-257 melanoma, greater than 100 µM; in the test on NCI-H522 lung it was 85.5 µM; in the test on A498 renal, 66.8 µM; with PC-3 prostate, greater than 100 µM; with A549 NSCLC, greater than 100 µM. Moreover, the TGI with OVCAR-4 ovarian was greater than 100 µM; with DU-145 prostate, greater than 100 µM; in the test with NCI-H460 lung, greater than 100 µM; in the test on HCT-15 colon it was greater than 100 µM; in the test with CCRF-CEM leukemia, 83.3 µM; in the test on OVCAR-3 ovarian, greater than 100 µM. The TGI in the test with IGROV1 ovarian, with MCF7 breast, in the test with SK-MEL-28 melanoma, in the test on HOP-92 NSCLC, in the test with NCI-H226 lung and with T-47D breast was greater than 100 µM throughout. Moreover, the total growth inhibition concentration (TGI) in the test with MDA-MB-231 breast is greater than 100 µM.
For `CC(=O)Oc1c(C)c2c(c3ncccc13)OC(C)C2` (stereo not drawn), the TGI in the test on SK-MEL-2 melanoma came out at 40.1 µM; in the test on UACC-257 melanoma, 28.6 µM; in the test with NCI-H522 lung, 15.4 µM; in the test with A498 renal, 58.3 µM; in the test with PC-3 prostate, 92.1 µM; in the test with A549 NSCLC it was 26.2 µM. The total growth inhibition concentration (TGI) with OVCAR-4 ovarian was 29.9 µM; in the test with DU-145 prostate, 29.8 µM; with NCI-H460 lung, 22.7 µM; in the test with HCT-15 colon, 24.5 µM; in the test with CCRF-CEM leukemia, 38.5 µM; with OVCAR-3 ovarian, greater than 100 µM. Also, the TGI is 20.1 µM with IGROV1 ovarian; 32.5 µM in the test on MCF7 breast; 26.8 µM in the test on SK-MEL-28 melanoma; 28.2 µM in the test on HOP-92 NSCLC; 32.8 µM in the test on NCI-H226 lung; 34.8 µM with T-47D breast. In the test with MDA-MB-231 breast, this molecule came in with a TGI of 26.2 µM.
Regarding `COc1cc2c(c(OC)c1O)-c1ccc(SC)c(=O)cc1C(NC(C)=O)CC2` (stereo not drawn), the TGI with SK-MEL-2 melanoma is greater than 5.54 µM; with UACC-257 melanoma, greater than 100 µM; in the test with DLD-1 colon, greater than 100 µM; with A498 renal, 30.9 µM; in the test on A549 NSCLC it was greater than 100 µM; in the test on OVCAR-4 ovarian it was greater than 100 µM. Further, the TGI is greater than 11 µM with NCI-H460 lung; greater than 100 µM with HCT-15 colon; greater than 100 µM with CCRF-CEM leukemia; 0.0142 µM in the test with OVCAR-3 ovarian; greater than 100 µM with IGROV1 ovarian; greater than 100 µM in the test with SK-MEL-28 melanoma. Also, the TGI with HOP-92 NSCLC was greater than 100 µM; in the test with NCI-H226 lung, greater than 16.7 µM.
Consider `O=C(NC(=S)Nc1ccc(Br)cc1)c1ccc2c(c1)Sc1ccccc1S2`, for which the TGI in the test on SK-MEL-2 melanoma was 57.9 µM; in the test on UACC-257 melanoma it was 54.5 µM; in the test with NCI-H522 lung, 52.6 µM; with A498 renal, 36.8 µM; in the test with PC-3 prostate, greater than 100 µM; in the test with A549 NSCLC, 48.6 µM. In addition, the TGI in the test with OVCAR-4 ovarian is 33.5 µM; in the test with DU-145 prostate, 32.4 µM; in the test with NCI-H460 lung, 32.3 µM; in the test on HCT-15 colon it was greater than 100 µM; with CCRF-CEM leukemia it was 54.1 µM; with OVCAR-3 ovarian it was 41.2 µM. For the same molecule, the TGI with IGROV1 ovarian is 30.2 µM; with MCF7 breast it was greater than 100 µM; in the test with SK-MEL-28 melanoma, greater than 100 µM; in the test on HOP-92 NSCLC, 32.5 µM; with NCI-H226 lung, 47.7 µM; in the test with T-47D breast, 33.4 µM. Also, the TGI in the test with MDA-MB-231 breast was 38.2 µM.
